Data set [1] in a line: Cytotoxicity against african green monkey Vero cells after 72 hrs by resazurin assay. Type of data set: cell-based. To be noted: chlorocebus sabaeus. Background: The colour change of resazurin is a common sign of viable cells or microbes.
Data set [2] in a line: Selectivity index, ratio of CC50 for african green monkey Vero cells tp MIC for Mycobacterium tuberculosis H37Rv. Type of data set: functional.
Data set [3] is described as follows: Lipophilicity, log P of the compound. Type of data set: physicochemical. To be noted: octanol/water.
Data set [4] deals with Mycobacterium tuberculosis. Briefly: Antimicrobial activity against Mycobacterium tuberculosis H37Rv by BACTEC radiometric method. The format is functional.
The subject of data set [5] is Mycobacterium tuberculosis. The data set can be described thus: Antimicrobial activity against compound-sensitive Mycobacterium tuberculosis 2280 by agar dilution method and BACTEC radiometric method. The format is functional. (In agar dilution, organisms are placed on agar that contains the substance at set levels.)
Data set [6] relates to Mycobacterium tuberculosis. Briefly: Antimicrobial activity against Mycobacterium tuberculosis H37Rv infected in mouse J774A.1 cells assessed as growth inhibition at MIC. Type of data set: functional.
Data set [7] concerns Mycobacterium tuberculosis. Briefly: Antimicrobial activity against Mycobacterium tuberculosis H37Rv infected in BALB/c mouse assessed as log10 reduction of bacterial growth in lungs at 100 mg/kg, po administered 6 days a week for 30 days starting from 2 days post infection relative to untreated control. Type of data set: functional.
Data set [8] concerns Mycobacterium tuberculosis. Type of data set: functional, organism-based. Conditions: H37Rv, 6.25 ug/ml.
Data set [9] relates to Mycobacterium tuberculosis. Briefly: Antimicrobial activity against Mycobacterium tuberculosis H37Rv infected in BALB/c mouse assessed as log10 reduction of bacterial growth in lungs at 25 mg/kg, po administered 6 days a week for 30 days starting from 2 days post infection relative to untreated control. Type of data set: functional.

In brackets after ≈: the same amount, converted by molar mass. Activity calls are given as the source filed them. The rule behind the calls is not given here.

In general, CC50 refers to the concentration that lowers cell viability or growth by half. For orientation: logP means a log measure of how a compound divides between an organic and an aqueous phase. A word on the MIC: it is the lowest concentration found to suppress growth.

In turn, `COc1cc(OCCN2CCCCCC2)c2c(c1)C(C)(C)[C@H](c1ccccc1)[C@H]2c1ccccc1` (relative stereo) returned a CC50 at 72 h in data set [1] of 8.11 µg/mL (≈ 17.3 µM). In addition, in data set [2], the “Selectivity Index” value stood at 2.6. Also, the logP in [3] came out at 7.66. The MIC in data set [4] was 3.12 µg/mL (≈ 6.65 µM).

As to `COc1cc(OCCCN(C)C)c2c(c1)C(C)(C)[C@H](c1ccccc1)[C@H]2c1ccccc1` (relative stereo), the CC50 at 72 h in data set [1] is 4.59 µg/mL (≈ 10.7 µM). Besides, the “Selectivity Index” value in data set [2] stood at 1.4. For the same molecule, the logP in data set [3] worked out at 6.62. Moreover, 3.12 µg/mL (≈ 7.27 µM) was the least that counted as inhibitory in data set [4] (MIC).

With `COc1cc(OCCN2CCOCC2)c2c(c1)C(C)(C)[C@H](c1ccccc1)[C@H]2c1ccccc1` (relative stereo), half-maximal cytotoxicity in data set [1] (CC50 at 72 h) was put at 17.5 µg/mL (≈ 38.2 µM). In addition, the “Selectivity Index” value in data set [2] is reported as 5.6. Moreover, in data set [3], the logP worked out at 6.11. Moreover, the lowest concentration to inhibit growth in data set [4] (MIC) was 3.12 µg/mL (≈ 6.83 µM).

Molecule `CCN(CC)CCOc1cc(OC)cc2c1[C@H](c1ccccc1)[C@@H](c1ccccc1)C2(C)C` (relative stereo) had a CC50 at 72 h in [1] of 3.74 µg/mL (≈ 8.43 µM). The “Selectivity Index” value in data set [2] was 1.19. This molecule came in with a logP in data set [3] of 7.19. In addition, in [4], the minimal inhibitory concentration (MIC) came to 3.12 µg/mL (≈ 7.04 µM).

Consider `COc1cc(OCCN(C)C)c2c(c1)C(C)(C)[C@H](c1ccccc1)[C@H]2c1ccccc1` (relative stereo), for which the CC50 at 72 h in data set [1] was 2.96 µg/mL (≈ 7.12 µM). In addition, the “Selectivity Index” value in data set [2] came out at 0.47. Also, the logP in data set [3] was found to be 7.24. In data set [4], this molecule came in with an MIC of 6.25 µg/mL (≈ 15 µM).

In data set [1], `COc1cc(OCCN2CCCCC2)c2c(c1)C(C)(C)[C@H](c1ccccc1)[C@H]2c1ccccc1` (relative stereo) showed a CC50 at 72 h of 2.41 µg/mL (≈ 5.29 µM). In addition, the “Selectivity Index” value in data set [2] is 1.54. The logP in data set [3] is 6.57. In addition, the MIC in data set [4] was found to be 1.56 µg/mL (≈ 3.42 µM).

In the case of `COc1cc(OCCN2CCCCC2)c2c(c1)C(C)(C)[C@H](c1ccccc1)[C@H]2c1c(OC)ccc2ccccc12` (relative stereo), the CC50 at 72 h in [1] turned out to be 5.52 µg/mL (≈ 10.3 µM). Also, the “Selectivity Index” value in [2] was 3.53. Besides, the logP in data set [3] is 8.11. In addition, the MIC in data set [4] was 1.56 µg/mL (≈ 2.91 µM).

As for `COc1cc(OCCN2CCCC2)c2c(c1)C(C)(C)[C@H](c1ccccc1)[C@H]2c1ccccc1` (relative stereo), the CC50 at 72 h in data set [1] turned out to be 7.49 µg/mL (≈ 17 µM). Also, the “Selectivity Index” value in [2] came out at 2.39. Further, in [3], the logP stood at 6.83. The MIC in [4] worked out at 3.12 µg/mL (≈ 7.08 µM).

As for `COc1cc(OCCN(C(C)C)C(C)C)c2c(c1)C(C)(C)[C@H](c1ccccc1)[C@H]2c1ccccc1` (relative stereo), half-maximal cytotoxicity in data set [1] (CC50 at 72 h) was put at 49.2 µg/mL (≈ 104 µM). Besides, the MIC in data set [5] and in data set [4] was 3.12 µg/mL (≈ 6.63 µM) throughout. In [2], the “Selectivity Index” value came out at 15.73. Also, the “growth inhibition (GI)” value in data set [6] is above 90%. Also, the log10cfu in [7] is reported as 1.35. Further, the outcome in [8] was Active. This molecule yielded a logP in data set [3] of 7.82.

In turn, `COc1cc(OCCN2CCCCCC2)c2c(c1)C(C)(C)[C@H](c1ccccc1)[C@H]2c1c(OC)ccc2ccccc12` (relative stereo) returned a CC50 at 72 h in data set [1] of 24 µg/mL (≈ 43.6 µM). In addition, the MIC in data set [5] and in data set [4] was 1.56 µg/mL (≈ 2.84 µM) each time. Also, the “Selectivity Index” value in data set [2] was found to be 15.37. The logP in [3] is 8.53.

`CC[C@@H](CO)NCCN[C@@H](CC)CO` [ETHAMBUTOL] registered a CC50 at 72 h in data set [1] of 38.5 µg/mL (≈ 188 µM). Besides, the “Selectivity Index” value in data set [2] stood at 77.02. Besides, the logP in data set [3] came out at 0.14. The MIC in data set [4] is 0.5 µg/mL (≈ 2.45 µM).

For `NNC(=O)c1ccncc1` [ISONIAZID], the log10cfu in data set [9] was 2.8.

In data set [1], `CO[C@H]1/C=C/O[C@@]2(C)Oc3c(C)c(O)c4c(O)c(cc(O)c4c3C2=O)NC(=O)/C(C)=C\C=C\[C@H](C)[C@H](O)[C@@H](C)[C@@H](O)[C@@H](C)[C@H](OC(C)=O)[C@@H]1C` [RIFAMYCIN] displayed a CC50 at 72 h of 62.5 µg/mL (≈ 89.5 µM). In data set [2], the “Selectivity Index” value is on record as 160.1. Moreover, the logP in data set [3] was 3.71. For the same molecule, it took 0.39 µg/mL (≈ 0.559 µM) to inhibit growth in [4] (MIC).

These data come from ChEMBL document CHEMBL2346660, “Synthesis and biological evaluation of trans 6-methoxy-1,1-dimethyl-2-phenyl-3-aryl-2,3-dihydro-1H-inden-4-yloxyalkylamine derivatives against drug susceptible, non-replicating M. tuberculosis H37Rv and clinical multidrug resistant strains” (Bioorg Med Chem Lett, 2013).
